Experiment [1] has as its target Matrix metalloproteinase-9 (Homo sapiens, UniProt P14780). Kind of experiment: Inhibition of human recombinant MMP9.
Experiment [2] concerns the target 72 kDa type IV collagenase (Homo sapiens, UniProt P08253). Kind of experiment: Inhibition of human recombinant MMP2.
Experiment [3] concerns the target T1, Interstitial collagenase (Homo sapiens, UniProt P03956).
T1 sequence (P03956 whole entry): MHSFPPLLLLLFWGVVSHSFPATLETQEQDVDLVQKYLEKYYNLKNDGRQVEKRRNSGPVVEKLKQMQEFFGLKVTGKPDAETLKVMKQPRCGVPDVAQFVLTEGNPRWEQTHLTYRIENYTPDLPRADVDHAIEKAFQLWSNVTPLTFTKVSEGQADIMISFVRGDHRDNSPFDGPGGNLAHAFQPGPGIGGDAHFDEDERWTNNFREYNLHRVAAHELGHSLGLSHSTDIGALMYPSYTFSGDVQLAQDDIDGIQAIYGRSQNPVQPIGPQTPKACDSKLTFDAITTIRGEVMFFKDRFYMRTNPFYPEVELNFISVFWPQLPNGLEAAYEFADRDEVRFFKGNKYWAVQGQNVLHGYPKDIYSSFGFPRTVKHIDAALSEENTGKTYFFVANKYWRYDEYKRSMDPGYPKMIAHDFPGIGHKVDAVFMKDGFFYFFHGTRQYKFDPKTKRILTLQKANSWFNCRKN
Nature of the experiment: Inhibition of human recombinant MMP1.

In experiment [4] the target is T2, Matrilysin (Homo sapiens, UniProt P09237).
T2 sequence (P09237 whole entry): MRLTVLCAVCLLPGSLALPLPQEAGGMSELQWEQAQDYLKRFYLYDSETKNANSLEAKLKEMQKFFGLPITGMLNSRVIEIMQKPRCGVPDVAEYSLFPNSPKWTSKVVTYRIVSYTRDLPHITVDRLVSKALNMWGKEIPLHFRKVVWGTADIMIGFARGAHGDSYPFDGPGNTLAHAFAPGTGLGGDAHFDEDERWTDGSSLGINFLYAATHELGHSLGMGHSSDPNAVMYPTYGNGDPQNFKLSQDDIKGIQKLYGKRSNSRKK
Kind of experiment: Inhibition of human recombinant MMP7.

In experiment [5] the target is Macrophage metalloelastase (Homo sapiens, UniProt P39900). Kind of experiment: Inhibition of human recombinant MMP12.
In experiment [6] the target is Matrix metalloproteinase-14 (Homo sapiens, UniProt P50281). Nature of the experiment: Inhibition of human recombinant MMP14.
Experiment [7] addresses Stromelysin-1 (Homo sapiens, UniProt P08254). Kind of experiment: Inhibition of human recombinant MMP3.
For experiment [8], the target named is Collagenase 3 (Homo sapiens, UniProt P45452). Nature of the experiment: Inhibition of human recombinant MMP13.

A value given as a limit tells only on which side of the number the result lay.

Sequence of Macrophage metalloelastase (P39900 whole entry): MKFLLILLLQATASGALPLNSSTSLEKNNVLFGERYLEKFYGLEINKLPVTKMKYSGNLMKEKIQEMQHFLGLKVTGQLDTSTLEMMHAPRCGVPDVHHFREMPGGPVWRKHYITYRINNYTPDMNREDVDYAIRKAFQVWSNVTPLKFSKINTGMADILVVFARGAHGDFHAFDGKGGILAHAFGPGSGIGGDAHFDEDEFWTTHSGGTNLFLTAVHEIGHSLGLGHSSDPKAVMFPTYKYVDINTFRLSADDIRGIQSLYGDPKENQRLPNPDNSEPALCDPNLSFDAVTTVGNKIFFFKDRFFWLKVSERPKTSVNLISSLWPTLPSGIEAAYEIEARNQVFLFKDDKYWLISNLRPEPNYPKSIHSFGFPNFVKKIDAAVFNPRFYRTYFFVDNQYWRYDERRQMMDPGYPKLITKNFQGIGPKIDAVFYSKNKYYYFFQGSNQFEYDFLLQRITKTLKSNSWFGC
Sequence of Stromelysin-1 (P08254 whole entry): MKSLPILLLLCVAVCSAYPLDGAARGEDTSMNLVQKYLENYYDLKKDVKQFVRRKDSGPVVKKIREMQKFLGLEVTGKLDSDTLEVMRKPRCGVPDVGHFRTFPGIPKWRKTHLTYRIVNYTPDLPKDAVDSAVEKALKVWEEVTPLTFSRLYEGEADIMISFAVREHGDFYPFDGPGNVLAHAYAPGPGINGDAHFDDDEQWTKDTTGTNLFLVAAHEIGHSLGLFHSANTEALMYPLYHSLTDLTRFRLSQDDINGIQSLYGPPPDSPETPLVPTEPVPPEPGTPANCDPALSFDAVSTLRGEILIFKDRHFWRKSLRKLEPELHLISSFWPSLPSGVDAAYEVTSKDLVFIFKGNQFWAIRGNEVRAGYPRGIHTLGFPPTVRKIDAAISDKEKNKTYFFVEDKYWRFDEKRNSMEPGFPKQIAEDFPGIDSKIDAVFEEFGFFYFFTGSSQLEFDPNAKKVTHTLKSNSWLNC
Sequence of 72 kDa type IV collagenase (P08253 whole entry): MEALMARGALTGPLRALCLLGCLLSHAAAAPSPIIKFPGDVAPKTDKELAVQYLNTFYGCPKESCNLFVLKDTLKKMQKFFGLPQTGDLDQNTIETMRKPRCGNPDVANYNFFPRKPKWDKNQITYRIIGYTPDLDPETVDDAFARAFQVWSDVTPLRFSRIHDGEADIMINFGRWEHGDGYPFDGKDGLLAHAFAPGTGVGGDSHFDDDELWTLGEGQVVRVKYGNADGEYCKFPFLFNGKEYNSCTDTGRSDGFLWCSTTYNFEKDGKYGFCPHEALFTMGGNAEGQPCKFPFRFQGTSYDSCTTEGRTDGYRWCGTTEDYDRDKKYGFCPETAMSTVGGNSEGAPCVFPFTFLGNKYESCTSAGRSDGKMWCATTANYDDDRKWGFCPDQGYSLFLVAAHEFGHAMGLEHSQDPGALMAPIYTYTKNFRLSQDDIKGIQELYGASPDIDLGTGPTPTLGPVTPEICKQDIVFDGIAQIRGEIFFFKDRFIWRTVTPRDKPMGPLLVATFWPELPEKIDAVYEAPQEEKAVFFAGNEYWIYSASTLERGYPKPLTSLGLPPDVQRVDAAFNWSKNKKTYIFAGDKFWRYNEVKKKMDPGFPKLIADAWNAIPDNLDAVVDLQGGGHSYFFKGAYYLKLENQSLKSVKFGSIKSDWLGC
Sequence of Matrix metalloproteinase-9 (P14780 whole entry): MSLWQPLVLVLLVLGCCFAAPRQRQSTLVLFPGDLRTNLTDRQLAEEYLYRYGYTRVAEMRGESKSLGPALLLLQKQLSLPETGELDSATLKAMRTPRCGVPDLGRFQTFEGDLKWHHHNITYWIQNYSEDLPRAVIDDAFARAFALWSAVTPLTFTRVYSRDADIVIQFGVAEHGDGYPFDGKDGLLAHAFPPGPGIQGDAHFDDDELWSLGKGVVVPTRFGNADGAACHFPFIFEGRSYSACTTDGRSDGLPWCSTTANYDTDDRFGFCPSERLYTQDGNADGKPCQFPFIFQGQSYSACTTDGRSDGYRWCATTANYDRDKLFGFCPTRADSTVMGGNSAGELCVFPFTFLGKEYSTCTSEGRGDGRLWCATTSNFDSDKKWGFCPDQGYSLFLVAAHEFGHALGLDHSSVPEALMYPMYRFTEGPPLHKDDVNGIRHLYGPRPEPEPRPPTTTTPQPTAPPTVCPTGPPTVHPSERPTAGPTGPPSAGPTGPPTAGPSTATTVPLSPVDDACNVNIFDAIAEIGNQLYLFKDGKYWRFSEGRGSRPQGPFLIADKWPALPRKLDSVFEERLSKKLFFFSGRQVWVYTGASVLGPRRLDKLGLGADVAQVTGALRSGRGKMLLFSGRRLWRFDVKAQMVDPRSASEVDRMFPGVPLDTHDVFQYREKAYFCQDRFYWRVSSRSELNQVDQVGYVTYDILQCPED

The term IC50 denotes the point on the concentration scale where inhibition reaches its midpoint. Regarding `NC(=O)CC1CCCc2sc3nc(C(=O)NCc4ccc5c(c4)NC(=O)CO5)[nH]c(=O)c3c21` (racemic), the IC50 in experiment [1], in experiment [2], in experiment [3], in experiment [4], in experiment [5] and in experiment [6] was above 10 µM throughout. In addition, the IC50 in experiment [7] was above 2.5 µM; in experiment [8] it was below 0.025 µM.

Source of the values: ChEMBL document CHEMBL1140912, “Extra binding region induced by non-zinc chelating inhibitors into the S1' subsite of matrix metalloproteinase 8 (MMP-8)” (J Med Chem, 2009).
